The conditions of data set [1]: bovine species, same (transdermal) formulation; cited from earlier work.
Data set [2] in a line: Pharmacokinetic study of flunixin in young piglets, comparing administration routes (plasma LC-MS/MS). Type of data set: in vivo, piglets (swine). The settings on record: pig, read-out: % F (bioavailability). The procedure: A pharmacokinetic study was conducted to compare the bioavailability of flunixin when administered buccally, intramuscularly, IV, and the transdermal routes via the perineum, ear canal, rectum, and midline in young piglets.
Piglets were administered either Banamine® Transdermal (buccal, perineum, ear canal, rectum, and midline) or Banamine®-S Injectable Solution (intravenous and intramuscular) at 5 to 6 days of age. Blood samples were collected from the piglets at 5 min, 15 min, 1 h, 2 h, 4 h, 8 h, 12 h, 24 h, 36 h, and 48 h for those treated with Banamine® Transdermal, and at 1 h, 2 h, 4 h, 8 h, 12 h, 24 h, 36 h, 48 h, 60 h, and 72 h for those treated with Banamine®-S Injectable Solution. Plasma samples were analyzed for flunixin concentration using an GLP-validated LC/MS-MS method. Swine plasma (K2EDTA) is extracted by protein precipitation with an acetonitrile solution of the internal standard (Flunixin-d3). The samples are then centrifuged, and the resulting supernatants are analyzed by LC-MS/MS using selective reaction monitoring in negative electrospray ionization mode. The ionic transitions monitored are m/z 295 to m/z 251 for Flunixin and m/z 298 to m/z 254 for the internal standard.
The following key pharmacokinetic parameters were calculated for each group (mean±standard error): […]

Like-named read-outs stand apart in the source and are kept apart here.

As to `Cc1c(Nc2ncccc2C(=O)O)cccc1C(F)(F)F` [flunixin, Flunixin], the bioavailability in data set [1] was 44%; in data set [2] (im, Intramuscular, Banamine-S Injectable Solution, piglets) it was 71%; in data set [2] (other: buccal, Buccal, Banamine Transdermal, piglets) it was 40%; in data set [2] (topical or ocular, Midline, Banamine Transdermal, piglets (swine)), 5%.

Broadly, the bioavailability is dose-corrected exposure relative to a reference, in per cent.

The values are drawn from patent US20230390260A1, “METHOD OF TREATMENT OF PAIN THROUGH BUCCAL ADMINISTRATION OF FLUNIXIN” (Intervet Inc., priority 2020, published 2023).
